We go through three compounds from patent publication US4873236A, “Condensed diazepinones, processes for preparing them and pharmaceutical compositions containing these compounds” (Dr. Karl Thomae GmbH, priority 1986, dated 1989).

The target of test [1] is T1, muscarinic receptors, submandibular gland (Rattus norvegicus, UniProt P08483).
T1 construct: After removal of the heart and submandibular gland; from tissue; host or cells: submandibular gland of male Sprague-Dawley rats, homogenate
Briefly: Receptor bonding test in vitro, submandibular gland (displacement of 3H-N-methylscopolamine). Format: binding, Sprague-Dawley rats. The settings on record: 0.3 nmolar 3H-NMS, 30° C., 45 min. In general terms: In a radioligand displacement assay an active substance lowers the binding of a labelled ligand.

The target of test [2] is T2, M1 (rise in blood pressure by McN-A-343) (Rattus norvegicus, UniProt P08482).
T2 construct: from tissue
T2 sequence (P08482 1-460): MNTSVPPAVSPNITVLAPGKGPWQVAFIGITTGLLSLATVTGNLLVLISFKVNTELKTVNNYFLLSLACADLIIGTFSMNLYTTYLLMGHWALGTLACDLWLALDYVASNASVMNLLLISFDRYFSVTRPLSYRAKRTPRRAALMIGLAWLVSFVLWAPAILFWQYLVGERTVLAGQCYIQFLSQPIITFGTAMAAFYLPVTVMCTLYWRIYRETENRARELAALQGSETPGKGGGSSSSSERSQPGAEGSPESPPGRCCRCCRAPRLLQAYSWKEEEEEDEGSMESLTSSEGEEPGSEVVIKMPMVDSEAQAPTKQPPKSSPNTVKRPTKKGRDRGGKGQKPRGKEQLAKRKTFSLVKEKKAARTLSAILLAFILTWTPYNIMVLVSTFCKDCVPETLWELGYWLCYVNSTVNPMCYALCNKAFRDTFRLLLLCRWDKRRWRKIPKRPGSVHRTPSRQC
Briefly: M1/M2 selectivity in the rat: inhibition of McN-A-343 blood pressure increase (M1). Format: in vivo, male THOM rats. The settings on record: iv, 5 min, i.v., 50% reduction in blood pressure rise by 0.3 mg/kg McN-A-343, read-out: M1 activity (rat) ED50.

Test [3] concerns the target T3, muscarinic receptors, lachrymal glands (Rattus norvegicus, UniProt P08483).
T3 construct: from tissue; host or cells: lachrymal glands of female rats, labelled in vivo
Kind of test: Receptor bonding test in vivo, lachrymal glands (3H-NMS). Details: species or system female rats. The settings on record: iv, 0.5 h, in vivo binding, i.v., 113 ng/kg 3H-NMS, read-out: ID50 Lachrymal glands. Here is the method: (§1) For these experiments, female rats with a body weight of about 200 g were used. Before the start of the test the animals were anaesthetised with a dosage of 1.25 g/kg of urethane. The animals were each given the prescribed dosage of test substance by intravenous injection. After 15 minutes, 113 ng/kg of ^3 H-N-methylscopolamine (^3 H-NMS) were administered by the same route. After another 15 minutes the animals were killed and the heart, bronchi and lachrymal glands were removed. These organs were dissolved in Soluene R and the radioactivity was determined. The measurements were assumed to be total bonding. […] ID50 values were determined for the individual organs using these tests.

For test [4], the system named is muscarinic receptors, bronchi. Briefly: Receptor bonding test in vivo, bronchi (3H-NMS). Details: species or system female rats. The settings on record: in vivo binding, i.v., rat, 113 ng/kg 3H-NMS; 30 min. Here is the method:
as §1

The target of test [5] is T4, muscarinic receptors, ileum (Cavia porcellus, UniProt H0W1Z3).
T4 construct: The ileum was removed and incubated in Krebs-Henseleit solution; from tissue; host or cells: isolated ileum of guinea pig
T4 sequence (H0W1Z3 1-590): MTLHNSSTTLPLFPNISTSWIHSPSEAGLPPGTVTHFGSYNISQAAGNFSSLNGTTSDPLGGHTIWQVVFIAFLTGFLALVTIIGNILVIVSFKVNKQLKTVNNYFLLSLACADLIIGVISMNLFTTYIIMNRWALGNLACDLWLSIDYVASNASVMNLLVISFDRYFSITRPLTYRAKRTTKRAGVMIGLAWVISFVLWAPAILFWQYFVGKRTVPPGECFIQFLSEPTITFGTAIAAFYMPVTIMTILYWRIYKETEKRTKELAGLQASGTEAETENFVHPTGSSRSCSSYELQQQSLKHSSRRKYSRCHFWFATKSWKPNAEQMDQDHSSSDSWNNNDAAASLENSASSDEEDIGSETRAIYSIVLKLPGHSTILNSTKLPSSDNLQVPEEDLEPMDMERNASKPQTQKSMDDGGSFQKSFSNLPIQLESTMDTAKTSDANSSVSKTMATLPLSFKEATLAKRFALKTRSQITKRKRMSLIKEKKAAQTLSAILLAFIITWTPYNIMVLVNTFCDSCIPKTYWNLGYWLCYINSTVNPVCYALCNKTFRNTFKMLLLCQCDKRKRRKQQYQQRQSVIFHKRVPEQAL
Kind of test: Dissociation constants (KB) on ileum, methacholine antagonism. The settings on record: guinea pig ileum, 30 min contact, read-out: KB Ileum (dissociation constant). Here is the method:
Dissociation constants (KB values) were determined in vitro on the guinea pig ileum and spontaneously beating atrium. The ileum was removed and incubated in Krebs-Henseleit solution in an organ bath. Contractions were produced by means of increasing concentrations of methacholine (M) so that a full concentration-activity curve could be plotted.

T3 sequence (P08483 whole entry): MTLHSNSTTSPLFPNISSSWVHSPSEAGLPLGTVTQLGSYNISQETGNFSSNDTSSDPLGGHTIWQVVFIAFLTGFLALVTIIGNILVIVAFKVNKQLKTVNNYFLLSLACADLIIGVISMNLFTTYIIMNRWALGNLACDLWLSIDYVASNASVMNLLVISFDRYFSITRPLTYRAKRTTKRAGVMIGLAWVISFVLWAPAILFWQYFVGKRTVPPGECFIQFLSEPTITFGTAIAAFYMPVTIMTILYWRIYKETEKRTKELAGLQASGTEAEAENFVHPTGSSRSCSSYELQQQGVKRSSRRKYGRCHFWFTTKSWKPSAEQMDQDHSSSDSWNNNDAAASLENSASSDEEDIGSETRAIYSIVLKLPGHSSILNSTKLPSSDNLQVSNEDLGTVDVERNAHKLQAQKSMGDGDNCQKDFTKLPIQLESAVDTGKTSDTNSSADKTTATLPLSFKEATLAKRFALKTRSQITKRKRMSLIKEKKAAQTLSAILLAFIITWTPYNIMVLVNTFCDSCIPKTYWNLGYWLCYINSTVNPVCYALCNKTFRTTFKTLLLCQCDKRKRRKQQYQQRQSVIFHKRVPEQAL
T1 sequence (P08483 whole entry): as above

The term IC50 denotes the point on the concentration scale where inhibition reaches its midpoint. Low readings indicate greater potency in that assay, high ones weaker potency in that assay. By Kb is commonly meant the affinity of an antagonist, worked out from how it opposes an agonist. `CCN(CC)CC1CCCCN1CCNC(=O)N1c2ccccc2NC(=O)c2csc(C)c21` (stereo not shown) [Substance B, 4-[[[2-[2-[(diethylamino)methyl]-piperidin-1-yl]ethyl]amino]carbonyl]-4,9-dihydro-3-methyl-10H-thieno[3,4-b][1,5]benzodiazepin-10-one]: in test [1], the half-inhibitory concentration (IC50) stood at 15 nM. The ED50 in test [2] was 0.033 mg/kg; in test [3], more than 1 mg/kg. For the same compound, the “ID50 Bronchi” value in test [4] turned out to be 0.15 mg/kg. Moreover, the Kb in test [5] worked out at 3.63 nM.

Compound `CCN(CC)CC1CCCCN1CCNC(=O)N1c2cc(Cl)ccc2C(=O)Nc2cccnc21` (stereo not shown) [Substance C, 9-chloro-11-[[[2-[2-[(diethylamino)methyl]-piperidin-1-yl]ethyl]amino]carbonyl]-5,11-dihydro-6H-pyrido[2,3-b][1,4]benzodiazepin-6-one] displayed an IC50 in test [1] of 150 nM. The ED50 in test [2] was 0.36 mg/kg. In addition, in test [4], the “ID50 Bronchi” value is 3.0 mg/kg. The Kb in test [5] came out at 83.2 nM.

Consider `CCCN(CCC)CC1CCCCN1CCNC(=O)N1c2ccccc2C(=O)Nc2cccnc21` (stereo not shown) [Substance A, 5,11-dihydro-11-[[[2-[2-[(dipropylamino)methyl]-piperidin-1-yl]ethyl]amino]carbonyl]-6H-pyrido[2,3-b][1,4]benzodiazepin-6-one], for which the ED50 in test [2] is 0.562 mg/kg; in test [3] it was more than 10 mg/kg. Besides, the “ID50 Bronchi” value in test [4] was found to be 0.7 mg/kg. In addition, the antagonist equilibrium constant (Kb) in test [5] came to 25.7 nM.
